Where a name gives a salt, the structure may show the parent alone. Read-outs that look alike come from different tables or passages of the source.
Key:
P-388 leukemia cells = experiment: Antitumor activity against P-388 leukemia cells (i.p. implanted, i.v. drug); type: in vivo, BDF1 mice; details: for response vs control in vivo at 60 mg/kg: dose e: 60 mg/kg/d × 3 (days 1, 5, 9)
Description: BDF1 mice were implanted intraperitoneally with P-388 leukemia cells at a rate of 1×10^6 cells/mouse, and each drug to be tested was administered intravenously on the first, fifth and ninth days, or on the first and fifth days after the implantation. […] The T/C (%) was calculated based on the following equation: [formula]
The drugs tested were as follows: solutions prepared by dissolving each of compound Nos. 34, 36 and 43 to 46 in physiological saline; suspension or solutions prepared by dissolving each of compound Nos. 35, 38 and 49 to 55 in dimethylacetamide, followed by adding thereto a small amount of a surface active agent (e.g., Tween-80) and then physiological saline; and suspension or solutions prepared by mixing each of the other compounds and a small amount of a surface active agent (e.g., Tween-80), followed by adding thereto physiological saline.

[1] = Acute toxicity (LD50, single intravenous administration); set-up: species or system day mice; details: mouse, in vivo, mice, single i.v.
Excerpt: In Table 15 are shown acute toxicity values (LD50, mg/kg) in day mice in the case of intravenously administering (once) each of the compounds of this invention in the form of preparations shown in the Preparation Examples shown in Table 16.

[2] = Mus musculus, P388, iv, 720 h, i.v., 30-day observation, read-out: T/C of MST
[3] = Mus musculus, P388, iv, 720 h, i.v., dose b: 20 mg/kg/d × 3 (days 1, 5, 9), 30-day observation, read-out: T/C of MST
[4] = Mus musculus, P388, iv, 720 h, i.v., dose c: 40 mg/kg/d × 3 (days 1, 5, 9), 30-day observation, read-out: T/C of MST
[5] = Mus musculus, P388, iv, 720 h, i.v., dose f: 80 mg/kg/d × 3 (days 1, 5, 9), 30-day observation, read-out: T/C of MST
[6] = Mus musculus, P388, iv, 720 h, read-out: T/C of MST

`COC1C(O)C(C)OC(OC2C(Oc3cccc4c(OC(=O)c5cc6cc(OCc7ccccc7)ccc6[nH]5)c5c(=O)oc6ccc(C)c7c(=O)oc(c34)c5c67)OC(C)C3OC(c4ccccc4)OC32)C1O` (centres unmarked) [Compound 101] gave a response vs control in vivo at 60 mg/kg (P-388 leukemia cells; [2]) of 191% and an LD50 ([1]; Preparation Example 2) of no less than 60 mg/kg.
In the case of `COC1C(N)C(C)OC(OC2C(Oc3cccc4c(OC(=O)CCC(C)=O)c5c(=O)oc6ccc(C)c7c(=O)oc(c34)c5c67)OC(C)C3OC(c4ccccc4)OC32)C1O` (centres unmarked) [Compound 48], the response vs control in vivo at 20 mg/kg (P-388 leukemia cells; [3]) is reported as 166%, the response vs control in vivo at 40 mg/kg (P-388 leukemia cells; [4]) is reported as 219% and the LD50 ([1]; Preparation Example 1) is reported as no less than 40 mg/kg.
`COC1C(O)C(C)OC(OC2C(Oc3cccc4c(OC(=O)Cc5c[nH]c6ccccc56)c5c(=O)oc6ccc(C)c7c(=O)oc(c34)c5c67)OC(C)C3OC(c4ccccc4)OC32)C1O` (centres unmarked) [Compound 20] showed a response vs control in vivo at 20 mg/kg (P-388 leukemia cells; [3]) of 148%, a response vs control in vivo at 40 mg/kg (P-388 leukemia cells; [4]) of 286% and an LD50 ([1]; Preparation Example 2) of no less than 40 mg/kg.
Compound `CCn1cc(C(=O)Oc2c3cccc(OC4OC(C)C5OC(C)(C)OC5C4OC4OC(C)C(O)C(OC)C4O)c3c3oc(=O)c4c(C)ccc5oc(=O)c2c3c54)c(=O)c2ccc(C)nc21` (centres unmarked) [Compound 107] has a response vs control in vivo at 80 mg/kg (P-388 leukemia cells; [5]) of 134% and an LD50 ([1]; Preparation Example 4) of no less than 80 mg/kg.
For `COC1C(O)C(C)OC(OC2C(Oc3cccc4c(OC(=O)CCCc5c[nH]c6ccccc56)c5c(=O)oc6ccc(C)c7c(=O)oc(c34)c5c67)OC(C)C3OC(c4ccccc4)OC32)C1O` (centres unmarked) [Compound 104], the response vs control in vivo at 20 mg/kg (P-388 leukemia cells; [3]) was 185%, the response vs control in vivo at 60 mg/kg (P-388 leukemia cells; [2]) was 256% and the response vs control in vivo at 30 mg/kg (P-388 leukemia cells; Mus musculus, P388, iv, 720 h, i.v., dose j: 30 mg/kg/d × 3 (days 1, 5, 9), 30-day observation, read-out: T/C of MST) was 219%. It also gave an LD50 ([1]; Preparation Example 2) of no less than 60 mg/kg.
Work on `COC1C(O)C(C)OC(OC2C(Oc3cccc4c(OC(=O)Cc5ccc6c(c5)OCO6)c5c(=O)oc6ccc(C)c7c(=O)oc(c34)c5c67)OC(C)C3OC(c4ccccc4)OC32)C1O` (centres unmarked) [Compound 29] yielded a response vs control in vivo at 20 mg/kg (P-388 leukemia cells; [6]) of 201%, a response vs control in vivo at 40 mg/kg (P-388 leukemia cells; [6]) of 255% and an LD50 ([1]; Preparation Example 2) of no less than 40 mg/kg.
With `COC1C(O)C(C)OC(OC2C(Oc3cccc4c(OC(=O)C5CCCN5C(=O)CNC(=O)CNC(=O)OCc5ccccc5)c5c(=O)oc6ccc(C)c7c(=O)oc(c34)c5c67)OC(C)C3OC(c4ccccc4)OC32)C1O` (centres unmarked) [Compound 4] the response vs control in vivo at 20 mg/kg (P-388 leukemia cells; [3]) was 138% and the LD50 ([1]; Preparation Example 2) was no less than 20 mg/kg.
For `COC1C(O)C(C)OC(OC2C(Oc3cccc4c(OC(=O)C5CCCN(C)C5)c5c(=O)oc6ccc(C)c7c(=O)oc(c34)c5c67)OC(C)C3OC(c4ccccc4)OC32)C1O` (centres unmarked) [Compound 24], the response vs control in vivo at 20 mg/kg/day (P-388 leukemia cells; Mus musculus, P388, iv, 720 h, i.v., dose b': 20 mg/kg/d × 2 (days 1, 5), 30-day observation, read-out: T/C of MST) was 152%, the response vs control in vivo at 40 mg/kg/day (P-388 leukemia cells; Mus musculus, P388, iv, 720 h, i.v., dose c': 40 mg/kg/d × 2 (days 1, 5), 30-day observation, read-out: T/C of MST) was 186% and the LD50 ([1]; Preparation Example 2) was no less than 40 mg/kg.
With `CCn1cc(C(=O)Oc2c3cccc(OC4OC(C)C5OC(c6ccccc6)OC5C4OC4OC(C)C(O)C(OC)C4O)c3c3oc(=O)c4c(C)ccc5oc(=O)c2c3c54)c(=O)c2ccc(C)nc21` (centres unmarked) [Compound 108] the response vs control in vivo at 80 mg/kg (P-388 leukemia cells; [5]) was 158% and the LD50 ([1]; Preparation Example 4) was no less than 80 mg/kg.
With `COC1C(N)C(C)OC(OC2C(Oc3cccc4c(OC(=O)C(C)CN)c5c(=O)oc6ccc(C)c7c(=O)oc(c34)c5c67)OC(C)C3OC(c4ccccc4)OC32)C1O` (stereo not drawn) [Compound 34, 6-O-(β-amino-isobutyryl)-3',4'-benzylidene-4"-epiamino-4"-deoxy-chartreusin dihydrochloride] the response vs control in vivo at 20 mg/kg (P-388 leukemia cells; [3]) was 140%, the response vs control in vivo at 40 mg/kg (P-388 leukemia cells; [4]) was 219% and the LD50 ([1]; Preparation Example 8) was no less than 40 mg/kg.
Compound `COC1C(O)C(C)OC(OC2C(Oc3cccc4c(OC(=O)c5ccco5)c5c(=O)oc6ccc(C)c7c(=O)oc(c34)c5c67)OC(C)C3OC(C)(C)OC32)C1O` (centres unmarked) [Compound 5] has a response vs control in vivo at 80 mg/kg (P-388 leukemia cells; [5]) of 217% and an LD50 ([1]; Preparation Example 4) of no less than 80 mg/kg.
Compound `COC1C(N)C(C)OC(OC2C(Oc3cccc4c(OC(=O)CCNC(=O)c5ccccc5)c5c(=O)oc6ccc(C)c7c(=O)oc(c34)c5c67)OC(C)C3OC(c4cccc(F)c4)OC32)C1O` (centres unmarked) [Compound 55] has a response vs control in vivo at 80 mg/kg (P-388 leukemia cells; [5]) of 133% and an LD50 ([1]; Preparation Example 6) of no less than 80 mg/kg.
For `COC1C(O)C(C)OC(OC2C(Oc3cccc4c(OC(=O)c5cccs5)c5c(=O)oc6ccc(C)c7c(=O)oc(c34)c5c67)OC(C)C3OC(C)(C)OC32)C1O` (centres unmarked) [Compound 62], the “T/C of MST” value (P-388 leukemia cells; i.v., dose f: 80 mg/kg/d × 3 (days 1, 5, 9), 30-day observation) was 131% and the LD50 ([1]; Preparation Example 2) was no less than 80 mg/kg.
`COC1C(O)C(C)OC(OC2C(Oc3cccc4c(OC(=O)c5ccc6ccccc6n5)c5c(=O)oc6ccc(C)c7c(=O)oc(c34)c5c67)OC(C)C3OC(C)(C)OC32)C1O` (centres unmarked) [Compound 27] gave a response vs control in vivo at 40 mg/kg (P-388 leukemia cells; [4]) of 142% and an LD50 ([1]; Preparation Example 5) of no less than 80 mg/kg.

Reference: patent US4927919A, “Chartreusin derivatives and salts thereof” (Ishihara Sangyo Kaisha, Ltd., priority 1985, dated 1990)
